From patent US10463709B2, “Short synthetic peptide for treating diseases and/or conditions related to angiogenesis” (MacKay Memorial Hospital, priority 2015, dated 2019)
Several values for one entry are separate records, joined by “and”; a condition that tells them apart may be missing. Equal entries are not always repeated. Square brackets hold non-standard residues; d marks the D form. Ends that are not written are not given here.

Tests used:
RPMI8226 cells = assay: MTT assay, VEGF-induced proliferation of RPMI8226 cells; format: cell-based; conditions: for effect on VEGF-induced proliferation of RPMI8226 cells: VEGF 50 ng/ml, 25 μM peptide, 24 hrs, MTT; for biological activity of the analogue relative to the 7-mer (summary statement of the description): summary of Example 1 findings
Description: The multiple myeloma line RPMI8226 was cultivated in complex medium (RPMI1640) supplemented with 10% (vol/vol) heat-inactivated fetal calf serum (Invitrogen), 50 μg/mL penicillin, 50 μg/mL streptomycin, and 2 mM L-glutamine at 37° C. in a 5% CO2 atmosphere. RPMI8226 cells were cultured in serum-free RPMI1640 medium for 24 hrs, and then cells were seeded in 48-well culture plates (3×10^5 cells/well) and continued to culture in 0.5 ml fresh serum-free RPMI1640 medium containing 25 μM peptide for another 24 hrs. The cell viability was determined by the MTT assay. Briefly, 50 μL of MTT stock solution (50 μL) (5 mg MTT dissolved in 1 ml of sterile PBS) was added to each culture well. In addition, 50 μL of the MTT stock solution was added in 500 μL of medium as the negative control. The culture plate was incubated at 37° C. for 4 hours. Aliquots (450 μl) from each sample were taken to a new well of 48-well culture plate, adding 100 μL DMSO, mixing thoroughly using the pipette and reacted at 37° C. for 20 min and read absorbance at 570 nm. These synthesized peptides were then subject to MTT assay, in which vascular endothelial growth factor (VEGF) was used as a stimulant to induce cell proliferation. Results are depicted in FIGS. 1 to 4.

HUVECs [1] = assay: VEGF-induced HUVEC proliferation assay; format: cell-based; conditions: vs untreated HUVECs
Description: HUVECs (1×10^5 cells per well of 6-well plate) were grown in Medium 200 with Low Serum Growth Supplement (LSGS Kit, supplement contains 1.9% FBS, 3 ng/ml bFGF, 10 μg/ml heparin, 1 μg/ml hydrocortisone, and 10 ng/ml EGF). Culture plates were coated with 2% gelatin. Cells (passages 4-8) were cultured at 37° C. in a humidified atmosphere of 5% CO2. […]
HUVECs (1×10^5 cells per well of 6-well plate) in Medium 200 supplemented with LSGS Kit were allowed to grow onto 6-well plates coated with 2% gelatin for 24 hours at 37° C. in 5% CO2. The culture medium was then replaced with serum free Medium 200 overnight. […] Then, cells were harvested by trypsin-EDTA and counted using a hemocytometer.

HUVECs [2] = assay: Endothelial cell capillary-like tube formation assay; format: cell-based; conditions: vs untreated HUVECs
Description: To examine the effect of the present synthetic peptide on in vitro angiogenesis, growth factor-reduced matrigel was pipetted into pre-chilled 24-well plates (150 μl matrigel per well) and polymerized for 45 min at 37° C. […] In this experiment, images were captured using a Cannon camera on Zeiss inverted microscope with magnification ×40 and tube length was quantified using Image analysis software (Image-Pro Plus). The control peptide as used in the present invention has the sequence of DLYRVR (SEQ ID NO: 10).

rat aortic ring = assay: Rat aortic ring assay (ex vivo microvessel sprouting); parameters: species or system Sprague Dawley rats; conditions: beta-FGF induced; peptide 50 μM
Description: Thoracic aortas were removed from euthanized 10-week-old male Sprague Dawley rats, and gently stripped off periaortic fibroadipose tissue. Aortas were sectioned to about 2-mm length rings, which were embedded in Matrigel. To induce angiogenesis, human recombinant bFGF (50 ng/ml) or bFGF plus the peptide (50 μM) was added in Matrigel. Gel (200 μl) containing an aortic ring was polymerized in 12-well plates (37° C. for 30 min) and then incubated with 1 ml of Medium 200 supplemented with 100 units/ml penicillin, and […] streptomycin and 2% FBS at 37 ° C. The cultures were propagated at 37 ° C. in a humidified incubator for up to 7 days. Sprouts were recorded using an inverted microscope platform (Leica DM16000B) with bright-field optics. Each ring was scored by three independent observers on a scale 0-4 depending on the degree of sprouting vessel being observed (0=no sprouting, 4=profuse sprouting). The experiment was repeated in triplicates.

B16-F10 melanoma cells = assay: Experimental pulmonary metastasis in mice; format: in vivo, C57BL/6 mice; conditions: for effect on number of colonies on the surface of the lung / in vivo metastasis / No. lung colonies: 10 mg/Kg intraperitoneal every 2 days; for No. lung colonies: day 8, n = 5; for Inhibition (%): lung colonies vs vehicle, 10 mg/Kg
Description: 2×10^5 B16-F10 cells were suspended in 100 μl PBS and checked for viability using trypan blue staining (>95%). The B16-F10 cells were then injected into the tail vein of the 6-week-old female C57BL/6 mice; while vehicle (DMSO), the present synthetic peptide or the control peptide (10 mg/kg) were administered by intraperitoneal injections every 2 days after the B16-F10 cell injection. Five mice were used for each group. On day 8 after inoculation of cells, the lungs were removed, and the number of visible colonies on the surface of the lungs were counted using a dissecting microscope.
Metastasis is the foremost cause of death from cancer. In this example, to investigate the efficacy of the present synthetic peptide on the metastasis of cancer cells, B16-F10 cells were injected into the tail vein of a mouse, the animal was then treated with the present synthetic peptide (7-mer or 7-mer DD, 10 mg/Kg) by intraperitoneal injections every 2 days. Upon completion of the experiment, the lungs were then removed and the tumor colonies visible to the eyes were then counted. Results are depicted in FIG. 10.

[3] = tested on: STZ-induced diabetic mice; assay: Vascular abnormalities in the retina of diabetic mice; format: in vivo; conditions: for Fluorescence Intensity (Fold): leaked FITC-BSA in entire retina, vs vehicle
Description: Diabetic mice were generated by a single intraperitoneal injection of streptozotocin (STZ) (150 mg/kg body weight). STZ was freshly prepared in 0.1 M citrate buffer (pH 4.5). After injection, mice were supplied with 10% sucrose overnight to prevent sudden hypoglycemic shock. After 1 week, mice with non-fasting blood glucose levels >500 mg/dl were defined as diabetic and used for the experiments. DMSO Vehicle or the present synthetic peptide (10 mg/kg; n≥3 per peptide) were administered by intraperitoneal injections twice a day. After treatment for 24 h, mice were intraperitoneal injected with 100 mg/kg of BSA-FITC for further 30 min.
To determine vascular lesions (hemorrhaging areas) in retina, the animals were euthanized by CO2 inhalation, and the eyes were enucleated and fixed by 2% paraformaldehyde for 2 hr and flat-mounted onto glass slides to obtain optical sections by an epifluorescence microscopy. Vascular lesions in the retina was scored in all four retinal quadrants of flat mounts by using a 20× objective. Six microscopic fields were sampled in each quadrant in both the central and peripheral retina, and data were presented as the average number of lesions/retina.
Vascular FITC-BSA leakage was determined by a fluorescence spectrofluorometer based on standard curves of FITC-BSA at excitation and emission wavelengths of 488 and 535 nm, respectively, and then normalized to a non-injected control retina. For this analysis, retinas were dissected from treated and untreated diabetic mice after BSA-FITC injections, and each was solubilized in 300 μL ice-cold PBS.
Diabetic retinopathy is characterized by blood-retinal barrier (BRB) breakdown and neurotoxicity. To evaluate the possible beneficial effect of the present synthetic peptides on diabetic retinopathy, STZ-induced diabetic mice were intraperitoneally injected with 7-mer peptide, DMSO vehicle or the control peptide (SEQ ID NO: 22). The retinal vascular abnormality was then monitored by detecting the extravasation of BSA-fluorescein. Results are depicted in FIG. 11.

[4] = VEGF (10 ng/mL) + 25 μM peptide

Substance: NH2-Asp-Leu-Tyr-Arg-Val-Gln-Ser-COOH (DLYRVQS; not fully specified (N-terminus, C-terminus); printed as NH2-Asp-Leu-Tyr-Arg-Val-Gln-Ser-COOH) [7-mer (R2→Q)]
- effect on VEGF-induced proliferation of RPMI8226 cells (RPMI8226 cells): could sustain 7-mer bioactivity, only partly

Substance: VEGF [reference compound]
- Cell number (Fold) (HUVECs [1]; VEGF (10 ng/mL) alone): 1.62 Fold and 1.62 ± 0.070 Fold
- Tube length (Fold) (HUVECs [2]; VEGF (10 ng/mL) alone): 3.43 ± 0.32 Fold

Substance: NH2-Asp-Leu-Tyr-Lys-Val-Pro-Ser-COOH (DLYKVPS; not fully specified (N-terminus, C-terminus); printed as NH2-Asp-Leu-Tyr-Lys-Val-Pro-Ser-COOH) [7-mer KP]
- effect on VEGF-induced proliferation of RPMI8226 cells (RPMI8226 cells): could sustain 7-mer bioactivity, only partly
- Cell number (Fold) (HUVECs [1]; [4]): 1.02 ± 0.075 Fold
- Tube length (Fold) (HUVECs [2]; [4]): 1.62 ± 0.29 Fold
- level of sprouting microvessels around the aortic ring (rat aortic ring): inhibited
- effect on number of colonies on the surface of the lung / in vivo metastasis (B16-F10 melanoma cells): may suppress in vivo metastasis
- No. lung colonies (B16-F10 melanoma cells): 69 ± 11.5
- Inhibition (%) (B16-F10 melanoma cells): 69.3%
- extravasation of FITC-BSA [3]: may significantly prevent
- Fluorescence Intensity (Fold) [3]: 0.37 ± 0.13 Fold

Substance: NH2-Asp-(D-Leu)-Tyr-Arg-Val-(D-Arg)-Ser-COOH (H-D[dL]YRV[dR]S-OH) [7-mer DR2]
- biological activity of the analogue relative to the 7-mer (summary statement of the description) (RPMI8226 cells): lose its biological activity

Substance: NH2-Phe-Leu-Tyr-Arg-Val-Arg-Ser-COOH (FLYRVRS; not fully specified (N-terminus, C-terminus); printed as NH2-Phe-Leu-Tyr-Arg-Val-Arg-Ser-COOH) [7-mer (D→F)]
- effect on VEGF-induced proliferation of RPMI8226 cells (RPMI8226 cells): could sustain 7-mer bioactivity, only partly
- biological activity of the analogue relative to the 7-mer (summary statement of the description) (RPMI8226 cells): relatively the same bioactivity

Substance: NH2-Asp-Leu-Tyr-Arg-Leu-Arg-Ser-COOH (DLYRLRS; not fully specified (N-terminus, C-terminus); printed as NH2-Asp-Leu-Tyr-Arg-Leu-Arg-Ser-COOH) [7-mer (V→L)]
- effect on VEGF-induced proliferation of RPMI8226 cells (RPMI8226 cells): could sustain 7-mer bioactivity, only partly
- biological activity of the analogue relative to the 7-mer (summary statement of the description) (RPMI8226 cells): relatively the same bioactivity
- Cell number (Fold) (HUVECs [1]; [4]): 1.02 ± 0.049 Fold
- Tube length (Fold) (HUVECs [2]; [4]): 1.41 ± 0.37 Fold
- level of sprouting microvessels around the aortic ring (rat aortic ring): inhibited
- effect on number of colonies on the surface of the lung / in vivo metastasis (B16-F10 melanoma cells): may suppress in vivo metastasis
- No. lung colonies (B16-F10 melanoma cells): 75 ± 30.4
- Inhibition (%) (B16-F10 melanoma cells): 66.8%
- extravasation of FITC-BSA [3]: may significantly prevent
- Fluorescence Intensity (Fold) [3]: 0.33 ± 0.079 Fold

Substance: H-D[dL]YRVRS-OH [7-mer DL]
- biological activity of the analogue relative to the 7-mer (summary statement of the description) (RPMI8226 cells): lose its biological activity

Substance: NH2-Leu-Leu-Tyr-Arg-Val-Arg-Ser-COOH (LLYRVRS; not fully specified (N-terminus, C-terminus); printed as NH2-Leu-Leu-Tyr-Arg-Val-Arg-Ser-COOH) [7-mer (D→L)]
- effect on VEGF-induced proliferation of RPMI8226 cells (RPMI8226 cells): could sustain 7-mer bioactivity, only partly
- biological activity of the analogue relative to the 7-mer (summary statement of the description) (RPMI8226 cells): relatively the same bioactivity

Substance: NH2-Asp-Leu-(D-Tyr)-Arg-Val-Arg-Ser-COOH (H-DL[dY]RVRS-OH) [7-mer DY]
- biological activity of the analogue relative to the 7-mer (summary statement of the description) (RPMI8226 cells): lose its biological activity
- Cell number (Fold) (HUVECs [1]; [4]): 1.63 ± 0.077 Fold

Substance: NH2-Asp-Val-Phe-Arg-Val-Arg-Thr-COOH (DVFRVRT; not fully specified (N-terminus, C-terminus); printed as NH2-Asp-Val-Phe-Arg-Val-Arg-Thr-COOH) [7-mer VFT]
- effect on VEGF-induced proliferation of RPMI8226 cells (RPMI8226 cells): could sustain 7-mer bioactivity, only partly
- biological activity of the analogue relative to the 7-mer (summary statement of the description) (RPMI8226 cells): relatively the same bioactivity

Substance: NH2-Ala-Leu-Tyr-Arg-Val-Arg-Ser-COOH (ALYRVRS; not fully specified (N-terminus, C-terminus); printed as NH2-Ala-Leu-Tyr-Arg-Val-Arg-Ser-COOH) [7-mer Da]
- effect on VEGF-induced proliferation of RPMI8226 cells (RPMI8226 cells): sustained part of the 7-mer activity

Substance: NH2-Asp-Ala-Tyr-Arg-Val-Arg-Ser-COOH (DAYRVRS; not fully specified (N-terminus, C-terminus); printed as NH2-Asp-Ala-Tyr-Arg-Val-Arg-Ser-COOH) [7-mer La]
- effect on VEGF-induced proliferation of RPMI8226 cells (RPMI8226 cells): sustained part of the 7-mer activity

Substance: NH2-Asp-Leu-Tyr-(D-Arg)-Val-Arg-Ser-COOH (H-DLY[dR]VRS-OH) [7-mer DR]
- biological activity of the analogue relative to the 7-mer (summary statement of the description) (RPMI8226 cells): lose its biological activity

Substance: NH2-Val-Leu-Tyr-Arg-Val-Arg-Ser-COOH (VLYRVRS; not fully specified (N-terminus, C-terminus); printed as NH2-Val-Leu-Tyr-Arg-Val-Arg-Ser-COOH) [7-mer (D→V)]
- effect on VEGF-induced proliferation of RPMI8226 cells (RPMI8226 cells): could sustain 7-mer bioactivity, only partly
- biological activity of the analogue relative to the 7-mer (summary statement of the description) (RPMI8226 cells): relatively the same bioactivity
